Among the data in BindingDB's records for patent US9388210 (Washington University, 2016) are IC50 values, retold here.

In this assay the target is Gamma-aminobutyric acid receptor subunit alpha-1/beta-2/gamma-2 (Rattus norvegicus, UniProt P18508+P62813+P63138). Nature of the assay: [35S]TBPS Binding Assay. The conditions noted are these: pH 7.4; 25 °C. The protocol:
Briefly, aliquots of membrane solution (0.5 mg/mL final protein concentration in assay) were incubated with 5 μM GABA, 2 nM [35S]TBPS (45−120 Ci/mmol), and 5 μL aliquots of steroid in DMSO solution (final assay concentrations ranged from 1 nM to 10 μM), and brought to a final volume of 1 mL with 200 mM NaCl, 50 mM potassium phosphate buffer, pH 7.4. […] Assay tubes were incubated for 2 h at room temperature.

Sequence of Gamma-aminobutyric acid receptor subunit alpha-1/beta-2/gamma-2 (P62813 whole entry): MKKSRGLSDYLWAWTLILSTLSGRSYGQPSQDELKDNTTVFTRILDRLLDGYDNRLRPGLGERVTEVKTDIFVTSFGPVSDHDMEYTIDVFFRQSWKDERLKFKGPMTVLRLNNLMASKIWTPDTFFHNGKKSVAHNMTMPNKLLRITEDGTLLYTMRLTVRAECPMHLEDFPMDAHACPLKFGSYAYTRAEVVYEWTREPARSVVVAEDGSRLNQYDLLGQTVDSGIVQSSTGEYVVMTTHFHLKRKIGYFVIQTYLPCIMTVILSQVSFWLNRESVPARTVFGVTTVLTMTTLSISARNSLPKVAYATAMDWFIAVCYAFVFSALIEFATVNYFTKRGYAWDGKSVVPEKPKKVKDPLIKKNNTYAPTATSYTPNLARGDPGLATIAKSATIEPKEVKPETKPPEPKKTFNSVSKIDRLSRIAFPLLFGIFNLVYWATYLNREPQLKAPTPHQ
Sequence of Gamma-aminobutyric acid receptor subunit alpha-1/beta-2/gamma-2 (P63138 whole entry): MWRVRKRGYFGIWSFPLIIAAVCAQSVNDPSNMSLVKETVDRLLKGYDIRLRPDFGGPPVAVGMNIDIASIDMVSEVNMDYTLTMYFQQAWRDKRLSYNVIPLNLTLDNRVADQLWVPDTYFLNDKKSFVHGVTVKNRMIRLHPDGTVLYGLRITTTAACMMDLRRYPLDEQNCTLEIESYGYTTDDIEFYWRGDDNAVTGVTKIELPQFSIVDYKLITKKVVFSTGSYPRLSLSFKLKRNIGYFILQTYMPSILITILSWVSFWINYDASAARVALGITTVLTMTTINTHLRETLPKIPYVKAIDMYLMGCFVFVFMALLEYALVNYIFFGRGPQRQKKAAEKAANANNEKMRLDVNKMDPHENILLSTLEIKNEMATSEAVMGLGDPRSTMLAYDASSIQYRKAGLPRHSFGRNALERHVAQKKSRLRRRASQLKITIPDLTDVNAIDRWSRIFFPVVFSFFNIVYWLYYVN
Sequence of Gamma-aminobutyric acid receptor subunit alpha-1/beta-2/gamma-2 (P18508 whole entry): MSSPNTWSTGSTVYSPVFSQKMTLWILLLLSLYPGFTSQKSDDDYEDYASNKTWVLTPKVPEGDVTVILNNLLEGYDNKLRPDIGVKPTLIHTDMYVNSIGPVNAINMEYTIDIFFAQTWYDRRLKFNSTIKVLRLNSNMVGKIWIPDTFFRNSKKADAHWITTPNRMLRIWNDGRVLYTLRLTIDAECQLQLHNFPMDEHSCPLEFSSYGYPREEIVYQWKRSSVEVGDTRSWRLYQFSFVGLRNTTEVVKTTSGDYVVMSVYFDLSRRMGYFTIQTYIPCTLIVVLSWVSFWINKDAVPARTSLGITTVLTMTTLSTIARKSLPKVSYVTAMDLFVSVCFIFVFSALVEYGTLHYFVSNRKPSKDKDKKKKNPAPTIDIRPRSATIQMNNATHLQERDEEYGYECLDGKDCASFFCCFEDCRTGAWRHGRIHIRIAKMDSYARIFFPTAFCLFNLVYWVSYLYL

A word on the IC50: it is the concentration that gives 50% inhibition. The compound `C[C@]12CC[C@@H](O)C[C@@H]1CC[C@@H]1[C@@H]2C(=O)C[C@]2(C)C(C=O)=CC[C@@H]12` [US9388210, 5a] came in with an IC50 of 997 nM. Consider `C[C@]12CC[C@@H](O)C[C@@H]1CC[C@H]1[C@@H]3CC[C@H](C=O)[C@@]3(C)CC(=O)[C@@H]12` [US9388210, 5b], for which the IC50 was found to be 770 nM.
